Assay [1] deals with C-SdCen WT (C-terminal domain M93-F168 of SdCen). Kind of assay: ITC binding of target peptides to wild-type C-SdCen. As to conditions: for Ka / ΔH: MOPS 50 mM, NaCl 100 mM, SD of fit in parenthesis; for Ka / ΔH / TΔS / ΔG: pH 7.5; for TΔS: from ΔG = ΔH − TΔS; for ΔG: ΔG = −RTln(1/Ka); for effect of calcium on binding (in words): presence vs absence of calcium. Details: species or system Scherffelia dubia.

The next assay deals with C-SdCen F109L. Kind of assay: ITC binding of target peptides to C-SdCen F109L. As to conditions: for factor of increase in change in enthalpy (ΔH) / factor of reduction of binding constant by F109L: EDTA; for TΔS / ΔG: F109L, pH 7.5; for TΔS: from ΔG = ΔH − TΔS; for ΔG: ΔG = −RTln(1/Ka); for ΔΔH: difference in binding enthalpy SdCen wt vs F109L; for ΔΔH / ΔΔG: EDTA 2 mM; for ΔΔG: difference in free energy SdCen wt vs F109L. Also noted: species or system Scherffelia dubia.

For another assay, the system named is C-SdCen E144A. Kind of assay: ITC binding of target peptides to C-SdCen E144A. Also noted: species or system Scherffelia dubia. As to conditions: for factor of decrease in affinity by E144A: absence of calcium; for TΔS / ΔG: pH 7.5; for TΔS: from ΔG = ΔH − TΔS; for ΔG: ΔG = −RTln(1/Ka); for ΔΔH: difference in binding enthalpy SdCen wt vs E144A.
In another assay the test system is C-SdCen F109L-E144A. Nature of the assay: ITC binding of target peptides to C-SdCen F109L-E144A. Also noted: species or system Scherffelia dubia. The settings on record: for TΔS / ΔG: F109L-E144A, pH 7.5; for TΔS: from ΔG = ΔH − TΔS; for ΔG: ΔG = −RTln(1/Ka); for ΔΔH: difference in binding enthalpy SdCen wt vs F109L-E144A; for ΔΔH / ΔΔG: EDTA 2 mM; for ΔΔG: difference in free energy SdCen wt vs F109L-E144A.

The target of assay [2] is T1, C-terminal domain of Scherffelia dubia centrin, wild type (Scherffelia dubia, UniProt Q06827 93-168).
T1 sequence (looked up): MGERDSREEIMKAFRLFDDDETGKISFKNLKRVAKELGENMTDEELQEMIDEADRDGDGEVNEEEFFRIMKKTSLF
Kind of assay: ITC.

In assay [3] the target is T1, C-terminal domain of Scherffelia dubia …. Kind of assay: ITC. The source holds these as a separate data set. (ITC needs no label: the signal is the heat of the interaction.)
The target is the same in assay [4]. Nature of the assay: ITC. The source holds these as a separate data set.
Assay [5] has the same target. Nature of the assay: ITC. The source holds these as a separate data set.
Setting [6] is: E144A, 30 °C, no Ca2+ (EDTA 2 mM).

Results on three molecules are retold here after article PMC3871271 (FEBS Open Bio, 2013).

“Also recorded” adds a separate entry of the source. Where two headings read alike, the source gives them in different places.

Turning to 846-NWKLLAKGLLIRERLKR-863 [P17-XPC], the Ka in assay [1] (WT, 30 °C, Ca2+ 2 mM) is on record as 59.4(9.10) 10^6 M^−1; in assay [1] (WT, 37 °C, Ca2+ 2 mM), 73.2(7.0) 10^6 M^−1. In addition, the ΔH in assay [1] (WT, 30 °C, Ca2+ 2 mM) is −23.4(0.16) kcal/mol; in assay [1] (WT, 37 °C, Ca2+ 2 mM), −23.36(0.08) kcal/mol. For the same molecule, the TΔS in assay [1] (WT, 30 °C, Ca2+ 2 mM) is -12.63 kcal/mol; in assay [1] (WT, 37 °C, Ca2+ 2 mM), -12.18 kcal/mol; in assay [1] (WT, 37 °C, no Ca2+ (EDTA 2 mM)) it was -29.94 kcal/mol; in the assay with C-SdCen F109L (30 °C, Ca2+ 2 mM) it was -4.78 kcal/mol; in the assay with C-SdCen F109L (30 °C, no Ca2+ (EDTA 2 mM)) it was -11.88 kcal/mol; in the assay with C-SdCen F109L (37 °C, Ca2+ 2 mM), -6.20 kcal/mol. Moreover, the TΔS with C-SdCen E144A (E144A, 30 °C, Ca2+ 2 mM) is -9.36 kcal/mol; in the assay on C-SdCen E144A (setting [6]), -19.78 kcal/mol; in the assay on C-SdCen E144A (E144A, 37 °C, Ca2+ 2 mM) it was -13.76 kcal/mol; in the assay on C-SdCen E144A (E144A, 37 °C, no Ca2+ (EDTA 2 mM)), -28.66 kcal/mol; in the assay with C-SdCen F109L-E144A (30 °C, Ca2+ 2 mM), -3.69 kcal/mol; with C-SdCen F109L-E144A (37 °C, Ca2+ 2 mM) it was -6.60 kcal/mol. The TΔS in the assay on C-SdCen F109L-E144A (37 °C, no Ca2+ (EDTA 2 mM)) is -13.21 kcal/mol. Also, the ΔG in assay [1] (WT, 30 °C, Ca2+ 2 mM) was -10.77 kcal/mol; in assay [1] (WT, 30 °C, no Ca2+ (EDTA 2 mM)), -10.41 kcal/mol; in assay [1] (WT, 37 °C, Ca2+ 2 mM) it was -11.18 kcal/mol; in the assay on C-SdCen F109L (30 °C, Ca2+ 2 mM), -10.85 kcal/mol; in the assay with C-SdCen F109L (30 °C, no Ca2+ (EDTA 2 mM)), -8.72 kcal/mol; in the assay on C-SdCen F109L (37 °C, Ca2+ 2 mM), -10.77 kcal/mol. Besides, the ΔG in the assay with C-SdCen E144A (E144A, 30 °C, Ca2+ 2 mM) is -11.08 kcal/mol; in the assay with C-SdCen E144A (setting [6]) it was -9.72 kcal/mol; in the assay on C-SdCen E144A (E144A, 37 °C, Ca2+ 2 mM), -11.41 kcal/mol; in the assay with C-SdCen F109L-E144A (30 °C, Ca2+ 2 mM), -10.42 kcal/mol; with C-SdCen F109L-E144A (30 °C, no Ca2+ (EDTA 2 mM)), -7.81 kcal/mol; with C-SdCen F109L-E144A (37 °C, Ca2+ 2 mM) it was -10.59 kcal/mol. For the same molecule, the “factor of higher affinity for P17-XPC than for R18-Sfi1” value in assay [1] (WT, 30 °C, EDTA) turned out to be 7; in assay [1] (WT, 37 °C, EDTA), 10. In addition, in assay [1] (WT, EDTA, 30 °C and 37 °C), the “difference in ΔH between P17-XPC and R18-Sfi1” value was determined as 3 kcal/mol. Further, the “factor of decrease in binding on temperature increase” value in assay [1] (WT, EDTA, 30 °C to 37 °C) was 3. The “factor of decrease in ΔH on temperature increase” value in assay [1] (WT, EDTA, 30 °C to 37 °C, becoming more negative) is listed as 1.2. The “effect of calcium on binding (in words)” value in assay [1] (WT) is “the presence of calcium enhanced the binding”; in assay [1] (WT, listed as XPC), “Calcium was not required for binding although its presence enhanced the binding; also recorded: addition of calcium enhanced the affinity”. In addition, in assay [1] (centrin, ITC, present and previous work), the “affinity comparison XPC vs Sfi1 (in words)” value is recorded as “better for XPC than for other targets such as Sfi1”. Further, the “factor of increase in change in enthalpy (ΔH)” value in the assay on C-SdCen F109L (F109L vs WT, 30 °C) turned out to be 1.7; in the assay on C-SdCen F109L (F109L vs WT, 37 °C) it was 1.4. Further, the “factor of reduction of binding constant by F109L” value was found to be 15 in the assay with C-SdCen F109L (F109L vs WT, 30 °C) and 15 in the assay on C-SdCen F109L (F109L vs WT, 37 °C). In addition, the “factor of decrease in Ka by F109L” value with C-SdCen F109L (F109L vs WT, temperature not stated) amounted to 15. Moreover, the “effect of F109L mutation on binding (in words)” value in the assay on C-SdCen F109L (F109L vs WT, listed as XPC) was “reduced the binding; also recorded: decreased the binding”. Moreover, the ΔΔH with C-SdCen F109L (30 °C) is -13.2 kcal/mol; in the assay on C-SdCen F109L (37 °C), -17.44 kcal/mol; in the assay on C-SdCen E144A (30 °C, EDTA 2 mM), -4.3 kcal/mol; in the assay on C-SdCen E144A (37 °C, EDTA 2 mM) it was -2.2 kcal/mol; in the assay on C-SdCen F109L-E144A (30 °C) it was -11.6 kcal/mol; in the assay on C-SdCen F109L-E144A (37 °C), -19.4 kcal/mol. The ΔΔG is -1.69 kcal/mol with C-SdCen F109L (30 °C); -2.03 kcal/mol with C-SdCen F109L (37 °C); -0.69 kcal/mol in the assay on C-SdCen E144A (difference in free energy SdCen wt vs E144A, 30 °C, EDTA 2 mM); -2.6 kcal/mol with C-SdCen F109L-E144A (30 °C); -2.67 kcal/mol with C-SdCen F109L-E144A (37 °C). The “factor of decrease in affinity by E144A” value was found to be 3 with C-SdCen E144A (E144A vs WT, 30 °C) and 4 with C-SdCen E144A (E144A vs WT, 37 °C). Besides, in the assay with C-SdCen E144A (E144A vs WT, EDTA), the “ΔH compared to wild type (in words)” value is recorded as “the same as for the wild type”. In the assay on C-SdCen E144A (E144A vs WT, listed as XPC), the “effect of E144A mutation on binding (in words)” value is “reduced the binding to XPC”. In addition, in the assay on C-SdCen E144A (E144A, presence vs absence of calcium), the “effect of calcium on affinity (in words)” value is “addition of calcium enhanced the affinity”. Further, in the assay on C-SdCen F109L-E144A (F109L-E144A vs WT and single mutants, listed as XPC), the “effect of F109L-E144A mutation on binding (in words)” value was “enhanced the negative effect of the two single mutations on XPC binding; also recorded: further reduced XPC binding”.
For the molecule Ac-SQHNRQLLRGALRRWK-NH2 [R18-HsSfi1 peptide], the figures for the Ka in assay [2] and in assay [3] were 4.5e+06 M⁻¹ and 1.23e+06 M⁻¹, respectively. The dH is -31.5 kcal/mol in assay [2] and -37.1 kcal/mol in assay [3].
On to Ac-NWKLLAKGLLIRERLKR-NH2 [P17-XPC peptide], for which the Ka in assay [2] worked out at 3.02e+07 M⁻¹; in assay [4], 5.94e+07 M⁻¹; in assay [5], 7.32e+07 M⁻¹. In addition, the dH is -33.8 kcal/mol in assay [2], -40.6 kcal/mol in assay [3], -23.4 kcal/mol in assay [4] and -23.4 kcal/mol in assay [5].
